From patent US6416998B1, “Plasmid encoding a modified steroid hormone” (Baylor College of Medicine, priority 1992, dated 2002)

Experiments:
[1] = molecular target: T1, UP-1 mutant receptor (hPR) (Homo sapiens, UniProt P06401); experiment: Yeast transcription assay (β-galactosidase activity); format: cell-based; details: for activation of mutant receptor: different concentrations (FIG. 5A); for transcriptional activity (in words): 1 μM, 4 hours
T1 construct: the wild type receptor is truncated by 54 authentic amino acids and 12 novel amino acids are added at the C-terminus; expressed in transfected cells; host or cells: Saccharomyces cerevisiae BJ3505 transformed with the UP-1 plasmid
T1 sequence (P06401 with tags, fused parts or gaps): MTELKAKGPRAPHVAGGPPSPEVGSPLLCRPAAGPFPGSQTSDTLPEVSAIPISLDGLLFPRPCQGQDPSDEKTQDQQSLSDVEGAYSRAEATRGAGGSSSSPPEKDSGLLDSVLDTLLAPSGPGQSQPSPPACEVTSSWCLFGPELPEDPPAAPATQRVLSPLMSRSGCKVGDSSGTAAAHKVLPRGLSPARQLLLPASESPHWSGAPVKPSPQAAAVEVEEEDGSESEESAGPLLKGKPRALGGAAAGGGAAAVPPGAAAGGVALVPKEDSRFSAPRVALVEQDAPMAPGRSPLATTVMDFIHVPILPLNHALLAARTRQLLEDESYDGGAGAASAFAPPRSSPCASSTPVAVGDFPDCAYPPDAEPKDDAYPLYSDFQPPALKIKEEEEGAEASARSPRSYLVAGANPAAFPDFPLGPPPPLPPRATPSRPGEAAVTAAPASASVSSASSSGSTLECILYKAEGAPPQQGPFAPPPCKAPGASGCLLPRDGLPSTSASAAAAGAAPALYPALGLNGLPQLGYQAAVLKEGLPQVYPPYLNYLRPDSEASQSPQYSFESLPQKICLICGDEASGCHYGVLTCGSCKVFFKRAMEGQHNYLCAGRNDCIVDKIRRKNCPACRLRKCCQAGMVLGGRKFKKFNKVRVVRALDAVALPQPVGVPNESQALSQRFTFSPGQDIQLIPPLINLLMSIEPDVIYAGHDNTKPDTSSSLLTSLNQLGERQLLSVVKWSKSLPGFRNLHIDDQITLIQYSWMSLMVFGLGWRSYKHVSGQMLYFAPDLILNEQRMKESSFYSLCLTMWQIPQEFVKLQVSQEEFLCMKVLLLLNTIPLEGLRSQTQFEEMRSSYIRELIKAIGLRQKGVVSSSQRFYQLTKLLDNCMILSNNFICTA
Method: (§1) Saccharomyces cerevisiae cells containing YEphPRB and the reporter plasmid were grown overnight at 30° C. in minimal media containing 2% glucose. The cells were subcultured in fresh medium and allowed to grow until early mid-log phase (O.D.600nm=1.0). Induction of receptor was initiated by the addition of 100 μM copper sulfate to the culture. Cells were harvested by centrifugation at 1,500 ×g for 10 minutes and resuspended in the appropriate buffer. This and all subsequent steps of analysis of the yeast extracts were done at 4° C.
(§2) When the cell density reached O.D.600nm=1.0, hormones were added to the cultures.
(§3) The plate assays used to identify the receptor mutants are qualitative in nature. To further characterize the properties of UP-1, the activity of the receptor mutants was compared with that of the wild type receptor in a transcription assay. […] The β-galactosidase activity in the cell cytosol was then measured.

[2] = molecular target: T2, wild type receptor (hPR-B) (Homo sapiens, UniProt P06401); experiment: as above; format: cell-based, yeast (Saccharomyces cerevisiae); details: 1 μM; for transcriptional activity (in words): 4 hours
T2 construct: expressed in transfected cells; host or cells: Saccharomyces cerevisiae BJ3505 transformed with YEphPR-B
T2 sequence (P06401 1-933): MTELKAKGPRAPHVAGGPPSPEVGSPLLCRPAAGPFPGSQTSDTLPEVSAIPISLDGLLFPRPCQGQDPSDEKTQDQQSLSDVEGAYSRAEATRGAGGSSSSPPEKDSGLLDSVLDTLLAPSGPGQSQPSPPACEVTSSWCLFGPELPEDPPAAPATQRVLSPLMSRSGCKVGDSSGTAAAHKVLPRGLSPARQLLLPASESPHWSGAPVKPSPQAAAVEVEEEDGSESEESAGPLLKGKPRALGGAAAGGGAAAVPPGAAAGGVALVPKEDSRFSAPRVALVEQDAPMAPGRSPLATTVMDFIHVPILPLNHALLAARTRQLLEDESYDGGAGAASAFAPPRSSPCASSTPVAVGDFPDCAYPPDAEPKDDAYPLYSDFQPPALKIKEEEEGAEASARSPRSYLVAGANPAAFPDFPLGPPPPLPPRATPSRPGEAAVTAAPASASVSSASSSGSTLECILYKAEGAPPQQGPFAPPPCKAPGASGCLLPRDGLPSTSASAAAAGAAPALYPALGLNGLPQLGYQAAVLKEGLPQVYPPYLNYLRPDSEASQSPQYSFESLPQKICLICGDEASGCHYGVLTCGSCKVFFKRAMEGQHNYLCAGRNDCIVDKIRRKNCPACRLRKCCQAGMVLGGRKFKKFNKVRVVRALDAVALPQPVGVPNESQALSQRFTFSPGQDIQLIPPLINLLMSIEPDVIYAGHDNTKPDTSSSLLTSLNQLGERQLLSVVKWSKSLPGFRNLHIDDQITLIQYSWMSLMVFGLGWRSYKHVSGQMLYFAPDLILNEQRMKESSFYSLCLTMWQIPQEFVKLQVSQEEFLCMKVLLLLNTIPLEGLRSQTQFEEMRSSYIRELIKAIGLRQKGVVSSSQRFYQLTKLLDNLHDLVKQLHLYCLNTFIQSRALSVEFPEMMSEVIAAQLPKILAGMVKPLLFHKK
Method: as §1, §2, §3

[3] = molecular target: T3, YEphPR-B879 truncated receptor (Homo sapiens, UniProt P06401); experiment: Yeast transcription assay; format: cell-based
T3 construct: YEphPR-B879, containing a stop codon corresponding to amino acid 880; expressed in transfected cells; host or cells: Saccharomyces cerevisiae (yeast)
T3 sequence (P06401 1-879): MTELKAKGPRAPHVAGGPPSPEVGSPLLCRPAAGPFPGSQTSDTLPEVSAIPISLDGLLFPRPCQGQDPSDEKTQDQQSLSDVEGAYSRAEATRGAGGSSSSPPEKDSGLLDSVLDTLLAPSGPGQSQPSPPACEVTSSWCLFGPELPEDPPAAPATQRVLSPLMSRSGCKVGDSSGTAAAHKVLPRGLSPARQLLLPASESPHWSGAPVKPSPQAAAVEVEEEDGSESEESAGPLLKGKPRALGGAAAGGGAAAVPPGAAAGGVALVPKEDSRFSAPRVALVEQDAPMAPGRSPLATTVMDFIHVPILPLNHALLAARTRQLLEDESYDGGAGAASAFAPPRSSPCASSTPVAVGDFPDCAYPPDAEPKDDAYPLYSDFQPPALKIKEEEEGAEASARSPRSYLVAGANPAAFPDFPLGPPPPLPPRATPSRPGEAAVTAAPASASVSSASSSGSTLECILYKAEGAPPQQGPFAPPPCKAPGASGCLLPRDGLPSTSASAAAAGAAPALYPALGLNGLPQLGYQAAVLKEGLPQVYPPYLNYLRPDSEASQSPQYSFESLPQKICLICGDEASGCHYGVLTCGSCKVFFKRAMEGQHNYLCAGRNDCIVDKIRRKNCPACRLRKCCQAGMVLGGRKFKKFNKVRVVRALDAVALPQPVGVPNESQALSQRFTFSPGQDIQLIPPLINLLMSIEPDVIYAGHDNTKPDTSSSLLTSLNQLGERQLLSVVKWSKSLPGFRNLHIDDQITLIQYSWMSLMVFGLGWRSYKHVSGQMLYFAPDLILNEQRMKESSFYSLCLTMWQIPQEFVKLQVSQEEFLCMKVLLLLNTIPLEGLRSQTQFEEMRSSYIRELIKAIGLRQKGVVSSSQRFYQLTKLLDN
Method: as §2
(§4) CJ236 cells were infected with mpPR90 (an M13 plasmid containing hPR cDNA).
(§5) Yeast cells were grown in the presence of 100 μM CuSO4. Transcriptional analysis was done as described above. Experiments were done in triplicate and transcriptional activities were normalized with respect to protein.

[4] = molecular target: T4, YEphPRB891 truncated receptor (Homo sapiens, UniProt P06401); experiment: Yeast transcription assay; format: cell-based
T4 construct: YEphPRB891, containing a stop codon at amino acid 892; expressed in transfected cells; host or cells: Saccharomyces cerevisiae (yeast)
T4 sequence (P06401 1-891): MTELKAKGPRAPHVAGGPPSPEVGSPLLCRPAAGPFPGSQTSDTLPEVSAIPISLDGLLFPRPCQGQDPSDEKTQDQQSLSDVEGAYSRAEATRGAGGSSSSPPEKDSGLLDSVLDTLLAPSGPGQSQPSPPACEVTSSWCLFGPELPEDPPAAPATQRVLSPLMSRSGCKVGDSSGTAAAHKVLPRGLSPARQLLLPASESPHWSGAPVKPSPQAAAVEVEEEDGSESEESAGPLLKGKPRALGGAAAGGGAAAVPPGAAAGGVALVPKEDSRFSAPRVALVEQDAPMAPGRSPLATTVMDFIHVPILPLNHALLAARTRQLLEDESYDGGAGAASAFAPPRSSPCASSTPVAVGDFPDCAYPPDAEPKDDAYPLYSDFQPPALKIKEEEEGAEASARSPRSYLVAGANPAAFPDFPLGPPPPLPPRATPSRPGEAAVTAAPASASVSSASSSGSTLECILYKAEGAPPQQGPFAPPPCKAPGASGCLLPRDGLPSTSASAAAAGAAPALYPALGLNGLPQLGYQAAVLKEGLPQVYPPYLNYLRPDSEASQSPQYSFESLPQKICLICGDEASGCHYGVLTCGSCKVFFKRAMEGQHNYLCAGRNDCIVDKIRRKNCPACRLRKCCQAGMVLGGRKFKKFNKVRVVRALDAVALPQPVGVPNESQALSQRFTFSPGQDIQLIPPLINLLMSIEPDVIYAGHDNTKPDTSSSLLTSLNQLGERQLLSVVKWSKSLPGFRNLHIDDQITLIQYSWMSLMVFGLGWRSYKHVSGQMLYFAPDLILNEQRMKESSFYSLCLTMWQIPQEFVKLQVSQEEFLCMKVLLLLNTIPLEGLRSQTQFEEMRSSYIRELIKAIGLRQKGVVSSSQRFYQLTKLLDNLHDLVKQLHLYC
Method: as §2, §4, §5

891 mutant (phPR-B891) = molecular target: T5, 891 mutant (phPR-B891) (Homo sapiens, UniProt P06401); experiment: Transient transfection CAT assay ([…]) in HeLa cells; format: cell-based; details: 10^−7M
T5 construct: YEphPRB891, containing a stop codon at amino acid 892; expressed in transfected cells; host or cells: HeLa cells (A16)
T5 sequence (P06401 1-891): T4 sequence (P06401 1-891)
Method: (§6) Five μg of chloramphenicol acetyltransferase (CAT) reporter plasmid, containing two copies of a PRE/GRE from the tyrosine amino transferase gene linked to the thymidine kinase promoter ([…]), were used in transient cotransfection experiments together with 5 μg of wild type or mutant receptor DNAs.
(§7) CAT assays were performed as described above. In panel (B), CV-1 cells were transiently transfected as in (A).

wild type PR (phPR-B) = molecular target: T6, wild type PR (phPR-B) (Homo sapiens, UniProt P06401); experiment: as above; format: cell-based; details: 10^−7M, 48 hours
T6 sequence (P06401 1-933): T2 sequence (P06401 1-933)
Method: as §6, §7

[5] = molecular target: T7, wild type receptor (phPR-B) (Homo sapiens, UniProt P06401); experiment: Transient transfection CAT assay in CV-1 cells; format: cell-based, monkey
T7 sequence (P06401 1-933): T2 sequence (P06401 1-933)
Method: as §6, §7
Cell-type specific factors can influence the activity of the transactivating domains of steroid receptors. In order to evaluate this possibility, wild type and mutant receptors were transfected into CV-1 cells.

| Compound | transcriptional activity (in words) [1] | transcriptional activity (in words) [2] | other results |
| --- | --- | --- | --- |
| CN(C)c1ccc(C2CC3(C)C(CCC34CCCO4)C3CCC4=CC(=O)CCC4=C23)cc1 (stereo not drawn) [Org31376, (11β,14β,17α)-4′,5′-dihydro-11-(4-dimethylaminophenyl)-[spiroestra-4,9-diene-17,2′(3′H)-furan]-3-one] | – | – | activation of mutant receptor [1]: activated |
| C[C@H]1CC2=CC(=O)CCC2=C2[C@@H]1[C@@H]1CC[C@@]3(CCCO3)[C@@]1(C)C[C@@H]2c1ccc(N(C)C)cc1 [Org31806, (7β,11β,17β)-11-(4-dimethylaminophenyl)-7-methyl-4′,5′-dihydrospiro[ester-4,9-diene-17,2′(3′H)-furan]-3-one] | – | – | activation of mutant receptor [1]: activated |
| CCC(=O)[C@@]1(C)CC[C@H]2[C@@H]3CCC4=CC(=O)CCC4=C3CC[C@@]21C [R5020] | had no effect | – | – |
| C[C@]12CC[C@@H]3c4ccc(O)cc4CC[C@H]3[C@@H]1CC[C@@H]2O [estradiol] | inactive | inactive | – |
| CC(=O)[C@H]1CC[C@H]2[C@@H]3CCC4=CC(=O)CC[C@]4(C)[C@H]3CC[C@]12C [progesterone] | – | – | induction of transcription [2]: greater than 60 fold; activation of transcription [3]: inactive; activation of transcription [4]: inactive; induction of CAT activity (891 mutant (phPR-B891)): no activity; induction of transcription of CAT gene reporter (wild type PR (phPR-B)): 3- to 4 fold; receptor activation (CAT) [5]: activated |

More lines, main results first:

| transcriptional activity (in words) [1] | transcriptional activity (in words) [2] | Compound | other results |
| --- | --- | --- | --- |
| inactive | inactive | C[C@]12CCC(=O)C=C1CC[C@@H]1[C@@H]2[C@@H](O)C[C@@]2(C)[C@H]1CC[C@]2(O)C(=O)CO [cortisol] | – |
| inactive | inactive | C[C@@H]1C[C@H]2[C@@H]3CCC4=CC(=O)C=C[C@]4(C)[C@@]3(F)[C@@H](O)C[C@]2(C)[C@@]1(O)C(=O)CO [dexamethasone] | – |
| inactive | inactive | COc1ccc2c(c1)CCC(c1ccccc1)=C2c1ccc(OCCN2CCCC2)cc1 [nafoxidine] | – |
